Experimental data reported in US4006243A, “Amino-, mercapto- and -oxy-substituted-phenyl and -phenalkyl imidazoles” (Schering Aktiengesellschaft, priority 1974, dated 1977).

Legend:
Assay type in all cases: cell-based
Candida albicans = assay: MIC by the tube test against Candida albicans (Table I)
From the text: (§1) Table I illustrates the high activity of the compounds of this invention, using as examples the compounds numbered 5-25, which are compared to the known compounds 1-4, viz., the ethyl ester of 1-(1,2,3,4-tetrahydro-1-naphthyl)-imidazole-5-carboxylic acid (Etonam) and the commercially available 2-dimethylamino-6-(β-diethylaminoethoxy)-benzothiazole, dihydrochloride (Dimazol dihydrochloride), as well as N-(2-hydroxybenzyl)-imidazole and N-(4-hydroxybenzyl)-imidazole (Bull. Soc. Chim. France 1973, 1179). The MIC values were determined by the tube test.

[1] = system: Trichophyton mentagrophytes; assay: MIC by the tube test against Trichophyton mentagrophytes (Table I)
From the text: as §1

Trichophyton rubrum = assay: MIC by the tube test against Trichophyton rubrum (Table I)
From the text: as §1

| Compound | Minimum Inhibitory Concentration MIC against Candida albicans (Candida albicans) | Minimum Inhibitory Concentration MIC against Trichophyton mentagrophytes [1] | Minimum Inhibitory Concentration MIC against Trichophyton rubrum (Trichophyton rubrum) |
| --- | --- | --- | --- |
| CCN(CC)CCOc1ccc2nc(N(C)C)sc2c1.Cl.Cl [Compound 2, 2-Dimethylamino-6-(β-diethylaminoethoxy)-benzothiazole, dihydrochloride] | inactive | inactive | inactive |
| Oc1ccc(Cn2ccnc2)cc1 [Compound 4, N-(4-Hydroxybenzyl)-imidazole] | inactive | inactive | inactive |
| CCOC(=O)c1cncn1C1CCCc2ccccc21 (stereo not drawn) [Compound 1, 1-(1,2,3,4-Tetrahydro-1-naphthyl)-imidazole-5-carboxylic Acid Ethyl Ester] | inactive |  |  |
| Oc1ccccc1Cn1ccnc1 [Compound 3, N-(2-Hydroxybenzyl)-imidazole] | inactive | inactive |  |
